Measurements as given in ChEMBL document CHEMBL4184309, “Synthesis and biological evaluation of novel carbazole-rhodanine conjugates as topoisomerase II inhibitors” (Bioorg Med Chem Lett, 2018).
Active and inactive are the calls of the source. The rule behind the calls is not given here.

Assays:
HL-60 = test: Cytotoxicity against human HL60 cells after 48 hrs by MTT assay; assay type: functional, cell-based; conditions: HL-60, 48 h
A549 = test: Cytotoxicity against human A549 cells after 48 hrs by MTT assay; assay type: functional, cell-based; conditions: A549, 48 h
HeLa = test: Cytotoxicity against human HeLa cells after 48 hrs by MTT assay; assay type: functional, cell-based
[1] = molecular target: DNA topoisomerase 2-alpha (Homo sapiens) (UniProt P11388); test: Inhibition of human topoisomerase-2 assessed as reduction in relaxation of pBR322 plasmid DNA at 20 uM measured after 30 mins by agarose gel electrophoresis
DNA topoisomerase 2-alpha (Homo sapiens), sequence (P11388 whole entry): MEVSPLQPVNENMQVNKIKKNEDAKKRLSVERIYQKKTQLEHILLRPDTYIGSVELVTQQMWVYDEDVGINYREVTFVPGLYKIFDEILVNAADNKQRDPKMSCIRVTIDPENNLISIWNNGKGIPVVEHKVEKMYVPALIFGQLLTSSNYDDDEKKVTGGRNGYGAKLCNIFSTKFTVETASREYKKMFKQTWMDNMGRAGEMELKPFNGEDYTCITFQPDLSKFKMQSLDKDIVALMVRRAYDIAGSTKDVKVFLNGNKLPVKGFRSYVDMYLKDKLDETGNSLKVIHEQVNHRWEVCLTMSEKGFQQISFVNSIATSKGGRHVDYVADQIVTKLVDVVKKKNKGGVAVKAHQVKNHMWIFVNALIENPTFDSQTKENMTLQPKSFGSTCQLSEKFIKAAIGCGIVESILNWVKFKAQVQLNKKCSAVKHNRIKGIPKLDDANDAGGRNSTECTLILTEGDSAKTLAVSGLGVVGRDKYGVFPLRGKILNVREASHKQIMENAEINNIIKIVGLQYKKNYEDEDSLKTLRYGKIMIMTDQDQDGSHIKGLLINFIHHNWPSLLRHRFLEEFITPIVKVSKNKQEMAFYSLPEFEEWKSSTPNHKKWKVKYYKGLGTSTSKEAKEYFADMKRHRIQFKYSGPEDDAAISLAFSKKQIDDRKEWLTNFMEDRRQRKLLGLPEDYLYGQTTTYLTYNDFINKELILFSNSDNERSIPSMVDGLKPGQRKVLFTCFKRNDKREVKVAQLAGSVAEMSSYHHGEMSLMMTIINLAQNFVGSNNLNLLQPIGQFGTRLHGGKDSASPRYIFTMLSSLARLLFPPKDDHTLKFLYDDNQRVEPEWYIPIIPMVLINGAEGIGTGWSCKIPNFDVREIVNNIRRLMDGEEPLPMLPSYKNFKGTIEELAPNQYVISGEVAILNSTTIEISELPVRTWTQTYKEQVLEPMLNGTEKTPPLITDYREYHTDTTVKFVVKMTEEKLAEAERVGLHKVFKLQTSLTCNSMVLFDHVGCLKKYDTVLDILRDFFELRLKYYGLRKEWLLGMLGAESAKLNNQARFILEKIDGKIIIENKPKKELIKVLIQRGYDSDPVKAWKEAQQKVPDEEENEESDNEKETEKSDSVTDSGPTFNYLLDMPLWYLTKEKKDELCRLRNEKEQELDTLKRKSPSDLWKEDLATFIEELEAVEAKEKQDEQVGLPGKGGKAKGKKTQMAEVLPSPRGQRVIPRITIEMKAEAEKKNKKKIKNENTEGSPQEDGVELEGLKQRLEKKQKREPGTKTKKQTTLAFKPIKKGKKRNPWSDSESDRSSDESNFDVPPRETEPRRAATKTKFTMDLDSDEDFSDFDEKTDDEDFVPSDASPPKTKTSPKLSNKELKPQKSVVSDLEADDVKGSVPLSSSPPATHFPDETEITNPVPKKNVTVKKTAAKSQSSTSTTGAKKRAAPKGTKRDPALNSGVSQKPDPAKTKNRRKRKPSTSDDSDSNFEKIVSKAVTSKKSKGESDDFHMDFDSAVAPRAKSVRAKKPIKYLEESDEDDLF

[2] = molecular target: T1, Topoisomerase I (Bos taurus) (UniProt Q2HPH0); test: Inhibition of calf thymus topoisomerase-1 assessed as reduction in relaxation of pBR322 plasmid DNA at 100 uM measured after 30 mins by agarose gel electrophoresis
T1 sequence (whole entry): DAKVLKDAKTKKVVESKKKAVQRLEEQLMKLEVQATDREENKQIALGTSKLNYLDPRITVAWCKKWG

K562 = test: Cytotoxicity against human K562 cells after 48 hrs by MTT assay; assay type: functional, cell-based; conditions: K562, 48 h
[3] = molecular target: DNA topoisomerase 2-alpha (Homo sapiens) (UniProt P11388); test: Inhibition of human topoisomerase-2 assessed as DNA intercalation by measuring relaxation of supercoiled pBR322 plasmid DNA at 0.3 to 2.5 uM after 6 mins by agarose gel electrophoresis
[4] = molecular target: DNA topoisomerase 1 (Homo sapiens) (UniProt P11387); test: Inhibition of human topoisomerase-1 assessed as DNA intercalation by measuring relaxation of supercoiled pBR322 plasmid DNA after 6 mins by agarose gel electrophoresis
DNA topoisomerase 1 (Homo sapiens), sequence (P11387 whole entry, looked up): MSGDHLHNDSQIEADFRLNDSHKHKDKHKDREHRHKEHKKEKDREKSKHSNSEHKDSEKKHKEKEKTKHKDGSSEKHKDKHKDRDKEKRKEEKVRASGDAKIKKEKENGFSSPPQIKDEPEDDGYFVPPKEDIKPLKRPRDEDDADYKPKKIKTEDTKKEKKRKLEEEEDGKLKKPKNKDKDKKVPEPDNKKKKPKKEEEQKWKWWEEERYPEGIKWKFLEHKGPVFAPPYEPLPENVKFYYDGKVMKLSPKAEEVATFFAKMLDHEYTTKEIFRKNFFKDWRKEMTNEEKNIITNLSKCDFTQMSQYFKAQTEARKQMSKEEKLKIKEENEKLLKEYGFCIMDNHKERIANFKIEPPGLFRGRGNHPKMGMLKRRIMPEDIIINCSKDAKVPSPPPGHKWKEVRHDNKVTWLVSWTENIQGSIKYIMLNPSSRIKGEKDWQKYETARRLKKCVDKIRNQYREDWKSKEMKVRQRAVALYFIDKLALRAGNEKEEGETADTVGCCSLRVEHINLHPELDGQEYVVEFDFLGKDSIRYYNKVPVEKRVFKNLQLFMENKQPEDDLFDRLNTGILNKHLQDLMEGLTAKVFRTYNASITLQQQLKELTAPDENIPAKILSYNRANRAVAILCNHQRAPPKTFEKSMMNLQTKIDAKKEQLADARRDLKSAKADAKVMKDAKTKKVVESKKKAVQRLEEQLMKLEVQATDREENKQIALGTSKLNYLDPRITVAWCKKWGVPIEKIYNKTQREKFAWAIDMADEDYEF

[5] = molecular target: DNA topoisomerase 2-alpha (Homo sapiens) (UniProt P11388); test: Poison activity at human topoisomerase-2 assessed as linear DNA formation by measuring relaxation of supercoiled pBR322 plasmid DNA at 50 uM after 6 mins by agarose gel electrophoresis
[6] = molecular target: DNA topoisomerase 2-alpha (Homo sapiens) (UniProt P11388); test: Inhibition of human topoisomerase-2 assessed as reduction in relaxation of pBR322 plasmid DNA at 10 uM measured after 30 mins by agarose gel electrophoresis

Row | SMILES | IC50 (HL-60) | IC50 (A549) | IC50 (HeLa) | inhibition [1] | inhibition [2] | IC50 (K562) | inhibition [3] | inhibition [4] | Activity [5] | inhibition [6]
1 | O=C(O)CN1C(=O)/C(=C/c2ccc3c(c2)c2ccccc2n3Cc2ccccc2F)SC1=S | 1.82 µM | 13.6 µM | 21.3 µM | inactive | inactive | 11.8 µM | – | – | – | –
2 | O=C(O)CN1C(=O)/C(=C/c2ccc3c(c2)c2ccccc2n3Cc2ccc(F)cc2F)SC1=S | 3.84 µM | 22.6 µM | > 50 µM | inactive | inactive | 12.6 µM | – | – | – | –
3 | O=C(O)CN1C(=O)/C(=C/c2ccc3c(c2)c2ccccc2n3Cc2ccc(F)c(F)c2)SC1=S | 4.17 µM | 12.4 µM | 15.1 µM | Active | inactive | 7.31 µM | – | – | – | –
4 | CC[n+]1c(-c2ccccc2)c2cc(N)ccc2c2ccc(N)cc21 | – | – | – | – | – | – | Active | – | – | –
5 | O=C(O)CN1C(=O)/C(=C/c2ccc3c(c2)c2ccccc2n3Cc2ccc(Br)cc2F)SC1=S | 3.51 µM | 9.44 µM | 11.7 µM | Active | inactive | 6.92 µM | – | – | – | –
6 | O=C(O)CN1C(=O)/C(=C/c2ccc3c(c2)c2ccccc2n3Cc2ccc(F)cc2)SC1=S | 8.57 µM | > 50 µM | > 50 µM | Active | inactive | 19.1 µM | – | – | – | –
7 | O=C(O)CN1C(=O)/C(=C/c2ccc3c(c2)c2ccccc2n3Cc2cccc(F)c2)SC1=S | 8.29 µM | 19.8 µM | > 50 µM | inactive | inactive | 12.8 µM | – | – | – | –
8 | O=C(O)CN1C(=O)/C(=C/c2ccc3c(c2)c2ccccc2n3Cc2ccccc2)SC1=S | 14.6 µM | 32.2 µM | > 50 µM | inactive | inactive | 21.4 µM | – | – | – | –
9 | N#Cc1ccc(Cn2c3ccccc3c3cc(/C=C4\SC(=S)N(CC(=O)O)C4=O)ccc32)cc1 | 0.43 µM | 2.18 µM | 5.06 µM | Active | inactive | 1.85 µM | – | Dose-dependent effect | inactive | –
10 | O=C(O)CN1C(=O)/C(=C/c2ccc3c(c2)c2ccccc2n3Cc2ccc(Cl)cc2)SC1=S | 4.86 µM | 16.2 µM | 28.3 µM | inactive | inactive | 13.4 µM | – | – | – | –
11 | Cc1ccc(Cn2c3ccccc3c3cc(/C=C4\SC(=S)N(CC(=O)O)C4=O)ccc32)cc1 | 17.8 µM | > 50 µM | > 50 µM | inactive | inactive | 29.6 µM | – | – | – | –
12 | O=C(O)CN1C(=O)/C(=C/c2ccc3c(c2)c2ccccc2n3Cc2ccc(Br)cc2)SC1=S | 12.7 µM | > 50 µM | > 50 µM | inactive | inactive | 28 µM | – | – | – | –
13 | COc1cc([C@@H]2c3cc4c(cc3[C@@H](O[C@@H]3O[C@@H]5CO[C@@H](C)O[C@H]5[C@H](O)[C@H]3O)[C@H]3COC(=O)[C@H]23)OCO4)cc(OC)c1O [ETOPOSIDE] | – | – | 32 µM | Active | – | – | – | – | – | –
14 | CC[C@@]1(O)C(=O)OCc2c1cc1n(c2=O)Cc2cc3ccccc3nc2-1 | – | – | – | – | Active | – | – | – | – | –
15 | O=C(O)CN1C(=O)/C(=C/c2ccc3c(c2)c2ccccc2n3Cc2ccc([N+](=O)[O-])cc2)SC1=S | 0.96 µM | 3.94 µM | 7.51 µM | Active | inactive | 2.7 µM | – | – | – | Active
16 | O=C(O)CN1C(=O)/C(=C/c2ccc3c(c2)c2ccccc2n3Cc2ccc(C(F)(F)F)cc2)SC1=S | 0.71 µM | 3.4 µM | 8.2 µM | Active | inactive | 2.16 µM | – | Dose-dependent effect | inactive | –
